Residues, ends and D or L forms follow the SMILES beside them.
How the values were obtained:
[1] = test system: rats with alloxan diabetes; assay: Insulin level in blood of alloxan diabetes rats (Example 5); assay type: in vivo, rat
Description: The experiment was held on 18 white mongrel rats weighing an average 375±35 g. After the estimation of the blood glucose level all the animals were divided at random into 2 groups. Then all the animals were subjected to single intravenous injection with 1 ml of alloxan solution (“Spofa”) in dose of 35 mg/kg. 15 days later control animals were daily intraperitoneally administered with 0.3 ml of 0.9% NaCl solution, rats of the main group—with tetrapeptide Lys-Glu-Asp-Trp-NH2 [SEQ ID NO:1] in dose of 3 μg (in 0.3 ml of 0.9% NaCl) per rat during 11 days.

[2] = test system: rats with alloxan diabetes; assay: Glucose tolerance test (sugar curve) in alloxan diabetes rats (Example 6); assay type: in vivo, rat; settings: for glucose concentration in blood, glucose tolerance test: in mg/dL
Description: The study was conducted on 13 male rats, enrolled in the previous tests (treatment variants—44 days after completion of tetrapeptide Lys-Glu-Asp-Trp-NH2 [SEQ ID NO:1] administration). 7 healthy rats with the same body weight constituted a separate group. All the animals were administered intravenously with 1 ml of 2% glucose solution, after that glucose concentration in their blood was estimated.

[3] = test system: patients with diabetes mellitus; assay: Clinical application in patients with diabetes mellitus (Example 8); assay type: in vivo, human; settings: for blood glucose level on an empty stomach: 10 μg i.m. 10 days
Description: The investigation was carried out in 36 patients aged from 16 to 83 years (7 men, 29 women). In 23 patients there was diagnosed type 1 diabetes, in 13 patients—type 2 diabetes. The disease duration varied from 1 year to 30 years. 32 patients received insulin. The majority of the patients suffering diabetes mellitus entered the hospital decompensated. Blood glucose level in these patients on an empty stomach oscillated from […]; the glycosylated haemoglobin—from 7.8 to 12.7%. All the patients were prescribed a rigid diet. All the patients were stratified randomly into 2 groups, with respect to age, sex, duration and stage of the disease (Table 7). Alongside with standard method of treatment 16 patients were prescribed Lys-Glu-Asp-Trp-NH2 [SEQ ID NO:1] tetrapeptide in dose of 10 μg (in 1 ml of 0.9% NaCl solution) intramuscularly once a day for 10 days. 4 patients suffering type 2 diabetes mellitus were prescribed together with standard treatment course Lys-Glu-Asp-Trp-NH2 [SEQ ID NO:1] tetrapeptide in dose of 100 μg (1 tablet) twice a day before meals during 10 days. Patients of the control group were administered with 1 ml of 0.9% of NaCl solution as a placebo following the same scheme.

[4] = test system: rats with alloxan diabetes; assay: Tetrapeptide in different doses on the course of alloxan diabetes in rats (Example 4); assay type: in vivo, rat; settings: for increase in the blood glucose level as compared to the controls: dose of 1 μg; for decrease of glucose level: dose of 10 μg
Description: The study was performed on 23 white mongrel male rats weighing on average […]. All the animals were subject to single intravenous administration of 1 ml of alloxan (“Spofa”) solution in dose of […].
Then the animals were divided at random into 3 groups. Control animals were intraperitoneally administered with 0.3 ml of 0.9% NaCl solution once a day. Rats of the second and third group were administered with tetrapeptide Lys-Glu-Asp-Trp-NH2 [SEQ ID NO:1] in dose of 1 μg (in 0.1 ml of 0.9% NaCl solution) and 10 μg (in 1.0 ml of 0.9% NaCl solution) per rat during 7 days.

[5] = test system: rats with alloxan diabetes; assay: Course of alloxan diabetes in rats, treatment variant (Example 2); assay type: in vivo, rat; settings: for decrease of the blood glucose level: throughout the whole study
Description: The study was conducted on 21 white mongrel male rats with average body weight 375±35 g. After estimation of glucose concentration in the blood all the animals were divided at random into 2 groups. Then all the animals were exposed to single intravenous administration 1 ml of alloxan solution (“Spofa”) in dose 35 mg/kg. In 15 days control animals were administered once a day intraperitoneally with 0.3 ml 0.9% NaCl solution, rats of the main group were administered with Lys-Glu-Asp-Trp-NH2 [SEQ ID NO:1] in dose 3 μg (in 0.3 ml of 0.9% NaCl solution) per rat during 11 days.

[6] = 8 days since the onset of tetrapeptide administration, 3 μg per rat i.p. daily
[7] = 15 days after alloxan administration, before peptide
[8] = 30 min after glucose administration
[9] = 60 min after glucose administration
[10] = 120 min after glucose administration
[11] = of 16 insulin-treated patients, 10 μg i.m. once a day for 10 days
[12] = tablets, patients treated with oral anti-diabetic medicine

NCCCC[C@H](N)C(=O)N[C@@H](CCC(=O)O)C(=O)N[C@@H](CC(=O)O)C(=O)N[C@@H](Cc1c[nH]c2ccccc12)C(N)=O [Lys-Glu-Asp-Trp-NH2, lysyl-glutamyl-aspartyl-tryptophane amid] (H-KEDW-NH2)
animals alive ([1]; 70th day after alloxan administration (control 62.5%)): 70%
Insulin content in blood ([1]; 1 day after the completion of tetrapeptide administration): 3.6 ± 0.7 mkIU/ml
insulin content in the blood, higher than in the control group ([1]; 8 days of substance administration): 3.9 fold
Insulin content in blood [1, 6]: 3.1 ± 1.1 mkIU/ml
Insulin content in blood ([1]; 9 days after the completion of tetrapeptide administration): 3.2 ± 0.5 mkIU/ml
Insulin content in blood [1, 7]: 1.5 ± 0.4 mkIU/ml
Insulin content in blood ([1]; 18 days after the completion of tetrapeptide administration): 4.3 ± 0.5 mkIU/ml
Insulin content in blood ([1]; 28 days after the completion of tetrapeptide administration): 4.1 ± 0.6 mkIU/ml
Insulin content in blood ([1]; 44 days after the completion of tetrapeptide administration): 3.9 ± 1.1 mkIU/ml
amount of insulin in the blood ([1]; all the following estimations, no insulin in control animals): 13-18%
Insulin content in blood ([1]; initial level): 23.8 ± 2.8 mkIU/ml
glucose concentration compared to the initial level (100%) ([2]; 5 min after glucose administration): 142.9%
glucose concentration in blood, glucose tolerance test ([2]; 5 min after glucose administration (1 ml of 2% i.v.)): 301.2 ± 10.5
glucose concentration compared to the initial level (100%) [2, 8]: 97.3%
glucose concentration in blood, glucose tolerance test [2, 8]: 205.1 ± 11.8
glucose concentration compared to the initial level (100%) [2, 9]: 95.6%
glucose concentration in blood, glucose tolerance test [2, 9]: 201.5 ± 13.2
glucose concentration compared to the initial level (100%) [2, 10]: 77.9%
glucose concentration in blood, glucose tolerance test [2, 10]: 164.2 ± 12.8
glucose concentration in blood, glucose tolerance test ([2]; initial level, 44 days after course completion): 210.8 ± 9.3
decrease of daily insulin dose as compared to the initial level ([3]; Case No. 1): 26 units
coagulogram indices ([3]; Case No. 1, at discharge): pronounced improvement
Daily dose of insulin ([3]; Case No. 1, at discharge, on admission 82 units): 56 units
blood glucose level on an empty stomach ([3]; Case No. 1, type 2 diabetes, discharge on the 18th day, on admission 10 μmol/l): 5.9 mM
decrease of daily insulin dose as compared to the initial level ([3]; Case No. 2): 8 units
Daily norm of insulin ([3]; Case No. 2, at discharge, on admission 40 units): 32 units
blood glucose level on an empty stomach ([3]; Case No. 2, type 1 diabetes, discharge on the 15th day, on admission 17.8 μmol/l): 3.4 mM
reduction of the dose of diabeton ([3]; Case No. 3): two-fold
blood glucose level ([3]; Case No. 3, after the completion of the treatment course): remained within the norm
glucose level on an empty stomach ([3]; Case No. 3, type 2 diabetes, second day, 100 μg tablet twice a day with 2 diabeton tablets, on admission 11 μmol/l): 6 mM
patients of the main group with decrease of insulin dose ([3]; none in control group): 50%
Decreased insulin dose necessary to achieve compensation, number of patients [3, 11]: 8
Increased insulin dose necessary to achieve compensation, number of patients [3, 11]: 2
The same insulin dose necessary to achieve compensation, number of patients [3, 11]: 6
reduction of the insulin daily dose ([3]; on average, in 8 patients out of 16): 8 units
reduction of the dose of insulin ([3]; patients who received tetrapeptide in tablets daily): 25 units
compensation [3, 12]: full compensation
reduction of the dose of oral anti-diabetic preparations [3, 12]: two-fold
insulin dose increase to achieve compensation ([3]; the 1st patient): 4 units
insulin dose increase to achieve compensation ([3]; the 2nd patient): 14 units
Glucose Concentration in blood ([4]; 1 mkg group, 7 days after alloxan administration): 245.6 ± 12.3 mg %
Glucose Concentration in blood ([4]; 1 mkg group, 14 days after alloxan administration): 261.7 ± 12.3 mg %
Glucose Concentration in blood ([4]; 1 mkg group, initial level): 80.6 ± 2.8 mg %
Glucose Concentration in blood ([4]; 1 mkg per rat, 7 days, 1 day after tetrapeptide administration): 228.3 ± 10.7 mg %
Glucose Concentration in blood ([4]; 1 mkg per rat, 4 days after tetrapeptide administration): 244.4 ± 12.2 mg %
Glucose Concentration in blood ([4]; 1 mkg per rat, 7 days after tetrapeptide administration): 269.4 ± 8.6 mg %
Glucose Concentration in blood ([4]; 1 mkg per rat, 14 days after tetrapeptide administration): 268.8 ± 12.4 mg %
Glucose Concentration in blood ([4]; 1 mkg per rat, 21 days after tetrapeptide administration): 272.5 ± 9.9 mg %
Glucose Concentration in blood ([4]; 10 mkg group, 7 days after alloxan administration): 247.2 ± 14.0 mg %
Glucose Concentration in blood ([4]; 10 mkg group, 14 days after alloxan administration): 252.2 ± 7.9 mg %
Glucose Concentration in blood ([4]; 10 mkg group, initial level): 83.9 ± 3.4 mg %
Glucose Concentration in blood ([4]; 10 mkg per rat, 7 days, 1 day after tetrapeptide administration): 193.3 ± 6.7 mg %
Glucose Concentration in blood ([4]; 10 mkg per rat, 4 days after tetrapeptide administration): 212.2 ± 7.3 mg %
Glucose Concentration in blood ([4]; 10 mkg per rat, 7 days after tetrapeptide administration): 205.6 ± 8.4 mg %
Glucose Concentration in blood ([4]; 10 mkg per rat, 14 days after tetrapeptide administration): 240.0 ± 7.9 mg %
Glucose Concentration in blood ([4]; 10 mkg per rat, 21 days after tetrapeptide administration): 248.3 ± 13.5 mg %
increase in the blood glucose level as compared to the controls ([4]; 1st day after completion of the course): 17.3%
increase in the blood glucose level as compared to the controls ([4]; 4th day after completion of the course): 12.3%
decrease of glucose level ([4]; day 1): 30%
decrease of glucose level ([4]; day 4): 23.8%
decrease of glucose level ([4]; day 7): 26%
decrease of glucose level ([4]; day 17): 12.7%
Glucose Concentration in the blood ([5]; 1 day upon completion of peptide administration (3 μg per rat, 11 days)): 222.5 ± 10.3 mg %
Glucose Concentration in the blood [5, 6]: 254.5 ± 16.2 mg %
Glucose Concentration in the blood ([5]; 9 days upon completion of peptide administration): 183.9 ± 10.5 mg %
Glucose Concentration in the blood [5, 7]: 333.6 ± 12.4 mg %
Glucose Concentration in the blood ([5]; 18 days upon completion of peptide administration): 236.7 ± 10.3 mg %
Glucose Concentration in the blood ([5]; 28 days upon completion of peptide administration): 221.5 ± 11.2 mg %
Glucose Concentration in the blood ([5]; 44 days upon completion of peptide administration): 210.8 ± 9.3 mg %
Glucose Concentration in the blood ([5]; 58 days upon completion of peptide administration): 198.9 mg %
lethality ([5]; by the end of the investigation, 84 days after alloxan (control 70%)): 36.4%
Glucose Concentration in the blood ([5]; initial level, before alloxan and before peptide): 81.1 ± 3.8 mg %
decrease of the blood glucose level ([5]; overall figure): 38.4%
decrease of the blood glucose level ([5]; range in brackets): 30-47.7%
lethality decrease ([5]; versus control group): two-fold

From patent US7491703B2, “Tetrapeptide regulating blood glucose level in diabetes mellitus” (“Access Bioscience” CJSC, priority 2003, dated 2009)
